Data taken from patent US10722444B2, “Stable hydrogel compositions including additives” (Allergan Industrie, SAS, priority 2014, dated 2020).

Assays:
[1] = Autoclaving stability of HA-based gel with additive (pH, extrusion force, rheology, appearance); assay type: physicochemical; conditions: for ΔpH / ΔTan δ (1 Hz): gel with additive minus gel without
Procedure: Stability of a hydrogel composition disclosed herein can be determined by subjecting a hydrogel composition to a heat treatment, such as, e.g., steam sterilization at normal pressure or under pressure (e.g., autoclaving). Preferably the heat treatment is carried out at a temperature of at least about 100° C. for between about one minute and about 15 minutes. Substantial stability of a hydrogel composition disclosed herein can be evaluated 1) by determining the change in the extrusion force (ΔF) of a hydrogel composition disclosed herein after sterilization, where the change in extrusion force less 2N is indicative of a substantially stable hydrogel composition as measured by (the extrusion force of a hydrogel composition with the specified additives) minus (the extrusion force of the a hydrogel composition without the added additives); and/or 2) by determining the change in rheological properties of a hydrogel composition disclosed herein after sterilization, where the change in tan δ 1 Hz of less than 0.1 is indicative of a substantially stable hydrogel composition as measured by Δ Tan δ 1 Hz=(tan δ 1 Hz of gel formulation with additives) minus (tan δ 1 Hz of gel formulation without additives). As such, a substantially stable hydrogel composition disclosed herein retains one or more of the following characteristics after sterilization: homogeneousness, extrusion force, cohesiveness, hyaluronan concentration, agent(s) concentration, osmolarity, pH, or other rheological characteristics such as tan δ.
(§1) Reminder for stability assessment with extrusion force: ΔF (F gel with additive −F gel without additive)<2N
Reminder for stability assessment with rheology: ΔTan δ (Tan δ 1 Hz gel with additive −Tan δ 1 Hz gel without additive)<0.1
Caffeic acid, at a concentration of 0.6%,(w/w), was incorporated into a HA-based gel matrix at 24 mg/g containing 5% of uncrosslinked HA. The gel formulated was autoclaved.
Inoveol® CAFA (supplied by Libragen), (INCI name: Aqua (and) Caffeyl Glucoside), a derivative of caffeic acid, at a concentration of 0.5% (w/w) of commercial solution, was incorporated into a HA-based gel matrix containing a viscoelastic portion. The gel formulated was autoclaved.
The gel formulated was autoclaved.

[2] = Long term stability / accelerated aging at 45° C. of HA-based gel with additive; assay type: physicochemical; conditions: for ΔpH / ΔTan δ (1 Hz): 0.6% (w/w) caffeic acid gel of Example 1 vs HA-based gel matrix without additives
Procedure: Long term stability of a hydrogel composition disclosed herein can be determined by subjecting a hydrogel composition to a heat treatment, such as, e.g., storage in an about 45° C. environment for about 60 days. Long term stability of a hydrogel composition disclosed herein can be evaluated 1) by assessing the clarity and color of a hydrogel composition after the 45° C. heat treatment, with a clear and uncolored hydrogel composition being indicative of a substantially stable hydrogel composition; 2) by determining the change in the extrusion force (ΔF) of a hydrogel composition disclosed herein after the 45° C. heat treatment, where the change in extrusion force less 2N is indicative of a substantially stable hydrogel composition as measured by (the extrusion force of a hydrogel composition with the specified additives before and after the 45° C. heat treatment) minus (the extrusion force of the a hydrogel composition without the specified additives before and after the 45° C. heat treatment); and 3) by determining the change in rheological properties of a hydrogel composition disclosed herein after sterilization, where the change in tan δ 1 Hz of less than 0.1 is indicative of a substantially stable hydrogel composition as measured by Δ Tan δ 1 Hz=(tan δ 1 Hz of gel formulation with the specified additives before and after the 45° C. heat treatment) minus (tan δ 1 Hz of gel formulation without the specified additives before and after the 45° C. heat treatment). As such, a long term stability of a hydrogel composition disclosed herein is evaluated by retention of one or more of the following characteristics after the 45° C. heat treatment: clarity (transparency and translucency), homogeneousness, and cohesiveness.
as §1
Reminder for stability assessment with rheology: ΔTan δ (Tan δ 1 Hz gel with additive −Tan δ 1 Hz gel without additive)<0.1 […]
The formulation prepared in Example 3 was subjected to accelerated aging or accelerated degradation in order to test the stability of the gel. […]

[3] = after autoclaving, 0.6% (w/w) caffeic acid in HA-based gel matrix at 24 mg/g containing 5% uncrosslinked HA
[4] = before autoclaving, 0.6% (w/w) caffeic acid in HA-based gel matrix at 24 mg/g containing 5% uncrosslinked HA
[5] = after 30 days at 45° C., 0.6% (w/w) caffeic acid gel of Example 1

For `O=C(O)/C=C/c1ccc(O)c(O)c1` [Caffeic acid], the “appearance of the gel compared with before autoclaving” value [1, 3] was “similar”, the ΔpH [1, 3] was 0.55 and the “ΔTan δ (1 Hz)” value [1, 3] was 0.02. For the same compound, the extrusion analysis finding ([1]; autoclaved gel with 0.6% (w/w) caffeic acid) was “beginning of degradation of the uncrosslinked hyaluronic acid”, the “appearance of the gel” value [1, 4] was “clear and brown” and the ΔpH [1, 4] was 0.18. The “ΔTan δ (1 Hz)” value [1, 4] was −0.003, the ΔpH ([2]; 10 days at 45° C.) was 1.05 and the “ΔTan δ (1 Hz)” value ([2]; 10 days at 45° C.) was 0.0560. The ΔpH ([2]; 20 days at 45° C.) was 0.90, the “ΔTan δ (1 Hz)” value ([2]; 20 days at 45° C.) was 0.077 and the ΔpH ([2]; 30 days at 45° C.) was 1.06. For the same compound, the “ΔTan δ (1 Hz)” value ([2]; 30 days at 45° C.) was 0.144, the “colour of the gel” value [2, 5] was “dark brown” and the “physical analysis of the gel, finding” value [2, 5] was “degradation of the formulation”.
